Measured values from patent publication US20250277001A1, “PEPTIDE DERIVATIVES AND RELATED USES AS OREXIN AGONISTS” (CENTESSA PHARMACEUTICALS (UK) LIMITED, priority 2022, published 2025).
Read-outs that look alike come from different tables or passages of the source. Where a SMILES comes first, the peptide text is derived from it. Where no end group is shown, it is not given here. [ ]: non-standard residue; d: D form. The star is where a group is joined. Malonyl(2,2-Me2,histaminyl) = CC(C)(C(=O)NCCc1cnc[nH]1)C(=O)*; d(hArg) = N=C(N)NCCCC[C@@H](N)C(=O)O; Gly(NCH2CH2Ph) = O=C(O)CNCCc1ccccc1; Hyp = O=C(O)[C@@H]1C[C@@H](O)CN1; hArg = N=C(N)NCCCC[C@H](N)C(=O)O; NMeN = CN[C@@H](CC(N)=O)C(=O)O; Aoc(2) = CCCCCC[C@H](N)C(=O)O; Phg = N[C@H](C(=O)O)c1ccccc1

Experiments:
[1] = tested on: mice; details: cited from earlier work
[2] = tested on: individuals with NT1; details: initial clinical studies; cited from earlier work
[3] = biological target: T1, human orexin type 1 receptor (hOX1R) (Homo sapiens, UniProt O43613); assay: Measurement of orexin type 1 receptor agonist activity (CHO cells, FLIPR TETRA intracellular Ca2+); format: cell-based
T1 construct: expressed in transfected cells
T1 sequence (O43613 1-425): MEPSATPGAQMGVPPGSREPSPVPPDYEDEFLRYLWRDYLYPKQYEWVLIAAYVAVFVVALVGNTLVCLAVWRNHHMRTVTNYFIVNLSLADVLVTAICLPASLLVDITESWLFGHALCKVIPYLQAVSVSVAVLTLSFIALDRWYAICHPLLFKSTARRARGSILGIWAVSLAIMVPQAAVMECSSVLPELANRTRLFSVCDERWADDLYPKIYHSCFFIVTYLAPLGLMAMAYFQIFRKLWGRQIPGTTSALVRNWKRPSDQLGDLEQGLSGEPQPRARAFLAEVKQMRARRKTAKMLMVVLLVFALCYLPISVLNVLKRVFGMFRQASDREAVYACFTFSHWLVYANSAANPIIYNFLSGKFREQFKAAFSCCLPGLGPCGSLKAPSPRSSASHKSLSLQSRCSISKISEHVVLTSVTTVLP
Text: (§1) In some embodiments, the assay uses cells stably expressing either human orexin type 2 or human orexin type 1 receptor. In some embodiments, the cells are obtained by inserting the Orexin receptor cDNA into pcDNA3.1(+) plasmid vector, identifying clones by G418 drug resistance selection, and/or growing a single clone for OX2R-CHO and OX1R-CHO in bulk. In some embodiments, the assay is detected using Fluorescent Imaging Plate Reader TETRA (FLIPR TETRA: manufactured by Molecular Devices). In some embodiments, the agonist activity of the test peptide is calculated assuming that the fluorescence value of the well containing only the dilution buffer is 0% and the fluorescence value of the well containing 10 nM human orexin A (Tocris) buffer is 100%.
(§2) Stable cell line generation. Obtainment of cells stably expressing either human orexin type 2 or human orexin type 1 receptor: to obtain a stable cell line the Orexin receptor cDNA was inserted into pcDNA3.1(+) plasmid vector and clones identified by G418 drug resistance selection. […] A single clone for OX2R-CHO and OX1R-CHO were grown in bulk and frozen to generate a cell bank for routine screening.
(§3) Measurement of orexin type 1 receptor agonist activity. Chinese hamster ovary (CHO) cells expressing human orexin type 1 receptor (hOX1R) were seeded in each well of 384 well black clear bottom plates (BD Flacon) at 10,000 cells per well and cultured for 24 h in an Ham's F12 (Gibco) medium containing 10% fetal calf serum (Sigma Aldrich) under the conditions of 37° C., 5% CO2. After removal of the medium, 50 μL of assay buffer 1 (0.1% bovine serum albumin (Sigma Aldrich), 20 mM HEPES (Molecular Dimensions), […] probenecid (Sigma Aldrich), 1× Calcium 5 dye (Molecular Devices) in Hank's balanced salt solution (Invitrogen)) was added, and the cells were incubated for 60 min under the conditions of 37° C., 5% CO2. A test peptide was dissolved in dimethyl sulfoxide (Sigma Aldrich) to 1 mM, and then diluted with assay buffer 2 (20 mM HEPES, Hank's balanced salt solution, 0.1% bovine serum albumin). For the reaction, a test peptide solution (10 μl) was added using Fluorescent Imaging Plate Reader TETRA (FLIPR TETRA: manufactured by Molecular Devices), a fluorescence value (excitation wavelength 488 nm, measurement wavelength 570 nm) of each well was measured every one second for 2 min, and the agonist activity was determined using the area of the fluorescence value as an indicator of intracellular Ca^2+ concentration. The agonist activity of the test peptide was calculated assuming that the fluorescence value of the well added with only the dilution buffer was 0% and the fluorescence value of the well added with 10 nM human orexin A (Tocris) buffer was 100%. As used herein, Emax indicates the value at 1 μM concentration when orexin A is converted to a full agonist (maximum value of agonist activity: 100%).

[4] = biological target: T2, human orexin type 2 receptor (hOX2R) (Homo sapiens, UniProt O43614); assay: Measurement of orexin type 2 receptor agonist activity (CHO cells, FLIPR TETRA intracellular Ca2+); format: cell-based
T2 construct: expressed in transfected cells
T2 sequence (O43614 1-444): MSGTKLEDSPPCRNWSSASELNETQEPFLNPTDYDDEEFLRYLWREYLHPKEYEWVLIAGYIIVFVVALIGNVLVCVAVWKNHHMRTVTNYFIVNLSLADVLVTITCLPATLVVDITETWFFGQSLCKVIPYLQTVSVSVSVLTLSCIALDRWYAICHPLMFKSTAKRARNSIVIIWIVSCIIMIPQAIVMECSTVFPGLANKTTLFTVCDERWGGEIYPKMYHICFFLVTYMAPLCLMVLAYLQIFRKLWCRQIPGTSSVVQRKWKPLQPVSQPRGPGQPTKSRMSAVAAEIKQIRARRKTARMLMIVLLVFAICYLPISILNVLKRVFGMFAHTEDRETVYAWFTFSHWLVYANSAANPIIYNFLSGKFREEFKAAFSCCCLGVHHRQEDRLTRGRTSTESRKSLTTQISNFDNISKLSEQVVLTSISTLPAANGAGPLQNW
Text: as §1, §2
as §3, with “type 2” for “type 1”, “receptor (hOX2R)” for “receptor (hOX1R) were”

[5] = intracerebroventricular (ICV), orexin-neuron ablated mice

What does the source list for `COC(=O)N1CCC[C@H](NS(C)(=O)=O)[C@@H]1CO[C@H]1CC[C@@H](c2ccccc2)CC1` [TAK-925]?
wakefulness ([1]; subcutaneous, OX2R-knockout mice): not; wakefulness ([1]; subcutaneous, WT mice): modestly increased; cataplexy [2]: trends for decreasing cataplexy; wakefulness [2]: substantial levels of increased wakefulness

What does the source list for `COc1ccc(-c2cccc(C(=O)N(C)C)c2)cc1S(=O)(=O)Nc1cccc(NCCNC(=O)c2ccccc2N(C)C)c1` [YNT-185]?
sleep-onset REM periods and cataplexy-like events ([1]; NT1 mouse model): decreases; wakefulness ([1]; intraperitoneally or ICV, wild type (WT) and orexin ligand-deficient mice): modestly increases

For `CCCCCC[C@H](NC(=O)[C@@H](NC(=O)[C@H](CC(C)C)NC(=O)[C@@H](NC(=O)CNC(=O)[C@@H](NC(=O)[C@H](C)NC(=O)[C@@H]1C[C@@H](O)CN1C(=O)[C@H](CC(N)=O)N(C)C(=O)CN(CCc1ccccc1)C(=O)[C@H](CCCNC(=N)N)NC(=O)[C@H](CCCNC(=N)N)NC(=O)[C@@H]1C[C@@H](O)CN1C(=O)[C@@H]1C[C@@H](O)CN1C(=O)[C@@H]1C[C@@H](O)CN1)c1ccccc1)[C@@H](C)CC)[C@@H](C)O)C(N)=O` [compound 16] (H-[Hyp][Hyp][Hyp]RR[Gly(NCH2CH2Ph)][NMeN][Hyp]A[Phg]GILT[Aoc(2)]-NH2), which EC50 ([3]; CHO cells expressing hOX1R, Ca2+ fluorescence, read-out: hOX1 pEC50 (converted)) is on record?
The EC50 was greater than 10 nM.

And the EC50 ([4]; CHO cells expressing hOX2R, Ca2+ fluorescence, read-out: hOX2 pEC50 (converted))?
Its EC50 is less than 0.1 nM.

With `CCCCCC[C@H](NC(=O)[C@@H](NC(=O)[C@H](CC(C)C)NC(=O)[C@@H](NC(=O)CNC(=O)[C@@H](NC(=O)[C@H](C)NC(=O)[C@@H]1C[C@@H](O)CN1C(=O)[C@H](CC(N)=O)N(C)C(=O)CN(CCc1ccccc1)C(=O)[C@H](CCCNC(=N)N)NC(=O)[C@H](CCCNC(=N)N)NC(=O)[C@@H]1CCCN1C(=O)[C@H](CCCCNC(=N)N)NC(=O)[C@H](CCC(N)=O)NC(=O)C(C)(C)C(=O)NCCc1cnc[nH]1)c1ccccc1)[C@@H](C)CC)[C@@H](C)O)C(N)=O` [compound 17] ({Malonyl(2,2-Me2,histaminyl)}-Q[hArg]PRR[Gly(NCH2CH2Ph)][NMeN][Hyp]A[Phg]GILT[Aoc(2)]-NH2) as the compound, how does the EC50 [3] read?
The EC50 was greater than 10 nM.

What about the EC50 [4] of the same compound?
The EC50 was less than 0.1 nM.

Which EC50 [3] does the source give for `CCCCCC[C@H](NC(=O)[C@@H](NC(=O)[C@H](CC(C)C)NC(=O)[C@@H](NC(=O)CNC(=O)[C@@H](NC(=O)[C@H](C)NC(=O)[C@@H]1C[C@@H](O)CN1C(=O)[C@H](CC(N)=O)N(C)C(=O)CN(CCc1ccccc1)C(=O)[C@H](CCCNC(=N)N)NC(=O)[C@H](CCCNC(=N)N)NC(=O)[C@H]1CCCN1C(=O)[C@@H](CCCCNC(=N)N)NC(=O)[C@@H](CCC(N)=O)NC(=O)C(C)(C)C(=O)NCCc1cnc[nH]1)c1ccccc1)[C@@H](C)CC)[C@@H](C)O)C(N)=O` [compound 18] ({Malonyl(2,2-Me2,histaminyl)}-[dQ][d(hArg)][dP]RR[Gly(NCH2CH2Ph)][NMeN][Hyp]A[Phg]GILT[Aoc(2)]-NH2) here?
Its EC50 is greater than 10 nM.

And the EC50 [4]?
The EC50 was less than 0.1 nM.

Which EC50 [3] does the source give for `CCCCCC[C@H](NC(=O)[C@@H](NC(=O)[C@H](CC(C)C)NC(=O)[C@@H](NC(=O)CNC(=O)[C@@H](NC(=O)[C@H](C)NC(=O)[C@@H]1C[C@@H](O)CN1C(=O)[C@H](CC(N)=O)N(C)C(=O)CN(CCc1ccccc1)C(=O)[C@H](CCCNC(=N)N)NC(=O)[C@H](CCCNC(=N)N)NC(=O)[C@@H]1CCCN1C(=O)[C@H](CCCCNC(=N)N)NC(=O)[C@@H](CCC(N)=O)NC(=O)C(C)(C)C(=O)NCCc1cnc[nH]1)c1ccccc1)[C@@H](C)CC)[C@@H](C)O)C(N)=O` [compound 19] ({Malonyl(2,2-Me2,histaminyl)}-[dQ][hArg]PRR[Gly(NCH2CH2Ph)][NMeN][Hyp]A[Phg]GILT[Aoc(2)]-NH2) here?
Its EC50 is greater than 10 nM.

What about the EC50 [4] of the same compound?
The EC50 was less than 0.1 nM.

What does the source list for `CCCCCC[C@H](NC(=O)[C@@H](NC(=O)[C@H](CC(C)C)NC(=O)[C@@H](NC(=O)CNC(=O)[C@@H](NC(=O)[C@H](C)NC(=O)[C@@H]1C[C@@H](O)CN1C(=O)[C@H](CC(N)=O)NC(=O)CN(CCc1ccccc1)C(=O)[C@H](CCCNC(=N)N)NC(=O)[C@H](CCCNC(=N)N)NC(=O)[C@@H]1CCCN1C(=O)[C@H](CCCCNC(=N)N)NC(=O)[C@@H](CCC(N)=O)NC(=O)C(C)(C)C(=O)NCCc1cnc[nH]1)c1ccccc1)[C@@H](C)CC)[C@@H](C)O)C(N)=O` [compound 20] ({Malonyl(2,2-Me2,histaminyl)}-[dQ][hArg]PRR[Gly(NCH2CH2Ph)]N[Hyp]A[Phg]GILT[Aoc(2)]-NH2)?
EC50 [3]: 1 to 10 nM; EC50 [4]: < 0.1 nM

With “orexin A (QPLPDCCRQKTCSCRLYELLHGAGNHAAGILTL; ends and bridges not checked; cysteine pairing not given here; UniProt O43612 34-66, looked up) [orexin neuropeptide, also known as hypocretin-1]” as the compound, how does the cataplexy-like behavior [1, 5] read?
The cataplexy-like behavior was “decreases”.

What about the time spent awake [1, 5] of the same compound?
Its time spent awake is “increase”.
